From PMC7940618, “Specific inhibition of the Survivin–CRM1 interaction by peptide-modified molecular tweezers” (Nature Communications, 2021)

Legend:
Survivin120 = target: T1, Survivin120 (Homo sapiens, UniProt O15392); assay: Reverse ITC titration (tweezer into Survivin120); format: binding; settings: tweezer added to constant Survivin
T1 construct: the only published NMR structure originated from a truncated Survivin (aa 1-120) with improved solubility; GST with PreScission site (N); made in house; host or cells: Escherichia coli soluBL21
T1 sequence (O15392 1-120): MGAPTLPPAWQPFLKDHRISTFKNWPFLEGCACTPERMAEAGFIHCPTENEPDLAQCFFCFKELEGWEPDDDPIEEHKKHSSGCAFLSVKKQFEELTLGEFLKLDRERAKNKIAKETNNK
Description: ITC was performed with a MicroCal iTC200 from Malvern Panalytical in PBS, pH 7.4 at 25 °C with molecular tweezers in the cell and Survivin120 in the titration syringe. The protein was dialyzed overnight at 4 °C against the PBS buffer. Ligands were dissolved in the respective dialysis buffer. Then, 300 µM TW were titrated with 300 µM Survivin120 WT or 321 µM Survivin120 K90/103T. Then, 100 µM TW-ELTL, TW-ELTLGEFL, or TW-LFEEGLLT was titrated with 1.2 mM Survivin120 WT or 2.5 mM Survivin120 K90/103T. For reverse titrations, either 33.3 or 34.4 µM Survivin120 in the cell was titrated with 5 mM TW or TW-ELTL in the syringe, respectively. All titrations were performed in PBS, pH 7.4 at 25 °C. Then, 1.5 μL injections were used with 120 s spacing time between injections. The injection rate was set to 0.5 µL/s and the reference power was 5 µcal/s. ITC thermograms were fitted to a one set of sites model with the software Origin (v7.0552) provided with the instrument. Heat of dilution was subtracted as constant from each data point.
Supplementary Figure SI8: Reverse ITC titrations. Titration of 33.3 μM (a) and 34,4 µM (b) Survivin120 in the cell with 5 mM unmodified tweezer TW (a) and TW-ELTL (b) in the syringe.
All titrations (n = 1) were performed in PBS, pH 7.4 at 25 °C. Top row: raw heating power over time subtracted by control heating power of Survivin120 titration into PBS. […]

Survivin–CRM1 complex = target: T2, Survivin–CRM1 complex (Homo sapiens, UniProt O15392); assay: Pull-down with 293T lysate (Survivin142-HA), GST-CRM1 bait, RanQ69L, dGTP; format: binding; settings: pull-down, tweezer 0.01 to 200 µM, 293T lysate
T2 construct: expressed in transfected cells; host or cells: 293T cells (Survivin142-HA); E. coli soluBL21 (GST-CRM1, RanQ69L)
T2 sequence (O15392 whole entry, one chain of several): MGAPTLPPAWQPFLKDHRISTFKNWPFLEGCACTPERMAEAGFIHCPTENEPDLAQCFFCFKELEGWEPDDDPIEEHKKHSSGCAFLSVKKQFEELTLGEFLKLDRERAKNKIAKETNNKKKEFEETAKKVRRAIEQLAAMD
Description: We next investigated whether tweezers inhibit the Survivin–CRM1 complex formation in vitro. The effects of the unmodified and peptide-linked tweezers were analyzed via pull-down experiments with 293T lysates containing overexpressed HA-tagged Survivin142, recombinant GST-CRM1 as bait protein, and tweezers (Fig. 6). The parent and ELTL-linked tweezer required 10–50 µM to disrupt the Survivin–CRM1 complex. […] In order to provide experimental evidence for the sequence selectivity of the TW-ELTLGEFL ligand, a scrambled analog was synthesized and clicked to the tweezer, resulting in the hybrid molecule TW-LFEEGLLT (SI1, SI2, and SI10). […] Instead, the slight chemical shift perturbations might be due to the spatial proximity of the peptide moiety to the anchoring residue. All those results strongly indicate that the additional binding energy from the NES interface was lost due to scrambling and thus point toward specific recognition as the reason for increased selectivity and interference with the Survivin–CRM1 interaction. Of note, very high tweezer concentrations (100–200 µM) also weakened GST-CRM1 binding to GSH-Sepharose beads, most likely by low-affinity binding to the GST protein.
All pull-down assays were performed at room temperature in pull-down buffer (PBS, pH 7.4, 1 mM DTT, 0.02 Triton X-100). GST fusion proteins were immobilized on 50 μL GSH-coated Sepharose 4B beads from GE Healthcare. The beads were prior equilibrated and blocked with 500 μL pull-down blocking buffer (PBS, pH 7.4, 1 (w/v) BSA, 1 mM DTT, 0.02 (v/v) Triton X-100) for 1 h to prevent unspecific binding.
For analysis of the effective inhibitory tweezer concentration, 200 μg 293T lysate with overexpressed Survivin142-HA was preincubated without ligand or with different concentrations (10 nM to 200 μM) of unmodified tweezer TW, TW-ELTL, TW-ELTLGEFL, or TW-LFEEGLLT for 1 h and then mixed with 35 μg GST-CRM1, 55 μg RanQ69L, and 2 mM dGTP. GSH-beads were incubated with this protein mixture for 2 h under rotation. […]
Samples of input and beads taken during pull-down experiments were ran on 12.5 SDS gels and transferred onto 0.2 µM PVDF membranes (Amersham Hybond P 0.2) using a PerfectBlue™ tank electro blotter (Peqlab) at 350 mA for 150 min. […] Chemiluminescence was detected and imaged using the Pierce ECL Plus Western Blotting Substrate kit (Thermo Fisher Scientific) and Chemidoc system (Bio-Rad) or film processor Cawomat 2000 IR (CAWO). Western blots were analyzed by densitometric analysis with ImageJ version 1.52p (U.S. National Institutes of Health), measuring the mean gray intensity of protein bands. […]

[1] = parameters: method as in PMID 23750919; settings: read-out: KD, affinity toward lysine; cited from earlier work

| Structure (SMILES) | tweezer molecules accommodated on the protein surface (kink at fold tweezer excess) (Survivin120) | concentration required to disrupt the Survivin–CRM1 complex (Survivin–CRM1 complex) [µM] | Kd [1] [µM] |
| --- | --- | --- | --- |
| O=P(O)(O)Oc1c2c(c(OP(=O)(O)O)c3c1C1CC3c3cc4c(cc31)C1CC4c3ccccc31)C1CC2c2cc3c(cc21)C1CC3c2ccccc21 [TW, reference compound] | 4–5 | 10 to 50 | 17 |
| CC(C)C[C@H](NC(=O)[C@@H](NC(=O)[C@H](CC(C)C)NC(=O)[C@H](CCC(=O)O)NC(=O)Cn1cc(CCOP(=O)(O)Oc2c3c(c(OP(=O)(O)O)c4c2[C@H]2C[C@@H]4c4cc5c(cc42)[C@H]2C[C@@H]5c4ccccc42)[C@H]2C[C@@H]3c3cc4c(cc32)[C@H]2C[C@@H]4c3ccccc32)nn1)[C@@H](C)O)C(=O)O [TW-ELTL] | 4–5 | 10 to 50 | – |
